# Reference: patent US20230149510A1, “METHOD FOR ALLEVIATING ARTHRITIS USING EPIDERMAL GROWTH FACTOR” (Lovin BioMed Co., Ltd., priority 2021, published 2023)
# Experiments:
# [1] = system: monosodium iodoacetate (MIA)-induced osteoarthritis (OA), right knee joint; experiment: Diameter of right knee joint in MIA-induced OA rats; format: in vivo, Sprague Dawley rats; details: 30 μL intraarticular on day 3 and day 14, measured end of day 28 with caliper, FIG. 1
# Procedure: A. Preparation of mixture containing EGF, CS, and HA EGF, CS, and HA were mixed in a weight ratio of 1:100:1000 in sterile water, so as to obtain a mixture containing EGF (20 μg/g), CS, and HA.
# Male Sprague Dawley rats (6 weeks old, with a body weight of approximately 200 to 300 g) used in the following experiments were purchased from National Laboratory Animal Center, Taipei City, Taiwan. All the experimental mice were housed in an animal room under the following laboratory conditions: an alternating 12-hour light and 12-hour dark cycle, a temperature maintained at 21° C. to 24° C., and a relative humidity maintained at 45% to 70%. Furthermore, water and feed were provided ad libitum for all the experimental mice. All experimental procedures involving the experimental mice were in compliance with the legal provision of the Institutional Animal Care and Use Committee of National Chung Hsing University, Taiwan, and were carried out according to the Guide for the Care and Use of Laboratory Animals of National Institutes of Health (NIH).
# The Sprague Dawley rats were divided into five groups, including one normal control group, one pathological control group, one comparative group, and two experimental groups (i.e., experimental groups 1 to 2) (n=5 rats in each group). […]
# The data thus obtained were analyzed according to the method described in section 1 of “General Procedures”.
# [2] = system: knee joint tissue of the hind leg, CII-induced RA; experiment: Histopathologic analysis of knee joint tissue of the hind leg, collagen-induced RA; format: in vivo, DBA/1 mice; details: mice; for morphological observation of cartilage structure and surface: knee joint of hind leg after day 42, data not shown
# Procedure: 2 mg/mL of a Chick type II collagen (CII) solution (Chondrex Inc., Cat. No. 20012) (in 10 mM acetic acid) was mixed with complete Freund's adjuvant (Sigma Aldrich, Cat. No. F5881-10ML) at a ratio of 1:1 (v/v), so as to obtain a first CII emulsion. 2 mg/mL of a Chick type CII solution was mixed with incomplete Freund's adjuvant (ChemCruzx, Cat. No. sc-24648) at a ratio of 1:1 (v/v), so as to obtain a second CII emulsion.
# The female DBA/1 mice were divided into five groups, including one normal control group, one pathological control group, one comparative group, and two experimental groups (i.e., experimental groups 1 to 2) (n=6 mice in each group). 200 μL of the first CII emulsion was injected subcutaneously into the tail of the respective mouse of the pathological control group, the comparative group, and the two experimental groups. The mice were subjected to a boost injection using 200 μL of the second CII emulsion on the 21st day after the initial immunization, so as to induce the occurrence of RA. In addition, the rats of the normal control group were injected with an adjuvant solution (in PBS).
# After completion of the boost injection, the respective mouse in the comparative group was intraperitoneally injected with 100 μL of 1% HA, the respective mouse in the experimental group 1 was intraperitoneally injected with 100 μL of the EGF solution (containing 20 μg/g EGF) prepared in section C of Example 1, the respective mouse in the experimental group 2 was intraperitoneally injected with 100 μL of the mixture solution (containing 20 μg/g EGF) prepared in section C of Example 1. Each mouse was administered once daily for a total period of 20 days.
# After completion of the evaluation of RA severity as described in section C of this example, the mice in each group were sacrificed by virtue of 95% CO2 asphyxiation, and the knee joint tissue of the hind leg and the sole tissue were obtained from each mouse carcass. The knee joint tissue of the hind leg of each mouse was subjected to histological sectioning, hematoxylin-eosin staining, and microscopic observation in sequence according to the methods described in section F of Example 1.
# Next, the pathological symptoms (i.e., inflammatory cell infiltration, synovial hyperplasia, and cartilage surface erosion) in the respective tissue section was assessed according to the method described in Deng G. M. et al. (2005), Nat Med., 11:1066-1072. The degrees of inflammatory cell infiltration, synovial hyperplasia, and cartilage surface erosion were scored on a scale from 1 to 4. The higher the scale, the higher the severity of the pathological symptom is.
# The data thus obtained were analyzed according to the method described in section 1 of the “General Procedures”.
Substance,diameter of the right knee joint [1],morphological observation of cartilage structure and surface [2],"scale of cartilage surface erosion (scale 1 to 4) ([2]; knee joint of hind leg, FIG. 7)","scale of inflammatory cell infiltration (scale 1 to 4) ([2]; knee joint of hind leg, FIG. 7)","scale of synovial hyperplasia (scale 1 to 4) ([2]; knee joint of hind leg, FIG. 7)"
"EGF: Epidermal growth factor (Cat. No. 02-108, Joycom Bio-chem) dissolved in PBS, 20 μg/g EGF; given to experimental group 1 (NSDSECPLSHDGYCLHDGVCMYIEALDKYACNCVVGYIGERCQYRDLKWWELR; UniProt P01133 971-1023, looked up)",lower than that determined in the pathological control group,"the cartilage structure was partially damaged, and a partially intact cartilage surface was observed",apparently or significantly lower than those determined in the pathological control group,apparently or significantly lower than those determined in the pathological control group,apparently or significantly lower than those determined in the pathological control group
"hyaluronic acid [HA, reference compound]",lower than that determined in the pathological control group,"the cartilage structure was partially damaged, and a partially intact cartilage surface was observed",–,–,–
